# Experimental data as given in patent US20230181524A1, “PHARMACEUTICAL COMBINATION AND USE THEREOF” (NATURAL MEDICINE INSTITUTE OF ZHEJIANG YANGSHENGTANG CO., …, priority 2020, published 2023).
# Where “and” joins values, the source holds several entries; their conditions need not be identical. Equal values may be shown once. d = 2'-deoxy (DNA)
# Key:
# [1] = system: HOS human osteosarcoma cells; assay: Cell counts of drug combination administration (Trypan Blue), cell viability
# Experimental: (§1) (1) Cells were plated in a 10 cm culture plate to grow a density of about 90%. The medium was removed, and the adherent cells were washed once with a PBS buffer. 1 mL of trypsin was added, and immediately discarded after mixing well. The cells were placed in the incubator and digested for about 5 min, and then about 10 ml of fresh medium was added. 10 μL was taken for counting.
# (§2) (2) 10 μL of the well-mixed cells were taken and mixed into 10 μL of Trypan Blue solution, and counted.
# (§3) (3) After counting, the cells were diluted to 1×10^5 cells/ml. The diluted cells were mixed well, and plated into a 24-well plate with 500 μL per well, i.e., about 50,000 cells per well.
# (§4) (4) The cells plated in the 24-well plate were cultured for about 24h, and then drugs were added. […]
# (§5) (5) After 24h of dosing, the medium was discarded. About 150 μL of trypsin was added and then discarded. The cells were digested for 5 min;
# (§6) (6) After digestion, equivalent amounts of PBS were added into each well and mixed uniformly. Then, 10 μL/well of Trypan Blue solution was added and mixed uniformly. 10 μL of the well-mixed solution was taken and counted. In accordance with “Cell viability=Cell Count of Test Group/Cell Count of Control Group×100%”, the cell viability of various groups was calculated.
# (§7) The coefficient of drug in interaction (CDI) was used to evaluate the nature of the interaction between the two drugs. The test groups were divided into the control group, the group of A drug, the group of B drug and the group of AB in combination, and used for detecting the cell viability in A, B and AB groups, respectively.
# [2] = system: 143B human osteosarcoma cells; assay: as above
# Experimental: as §1, §2, §3, §4, §5, §6, §7
# HEK293 cells = assay: Cell viability compared with HEK293 cells (specificity); type: cell-based; conditions: in combination with ascorbic acid
# Experimental: HEK293 cells, HOS human osteosarcoma cells, and 143B human osteosarcoma cells were subcultured in an incubator at 37° C., 5% CO2 using a RPMI-1640 medium containing 10% fetal bovine serum (FBS).
# (§8) 10 μL was taken for counting.
# (5) After 24h of dosing, the medium was discarded. […] The cells were digested for 5 min;
# [3] = system: MC38 human colon cancer cells; assay: Cell viability, method of Example 1
# Experimental: as §1, §2, §3
# (§9) (4) The cells plated in the 24-well plate were cultured for about 24h, and then drugs were added. Various test groups comprise 5 groups as follows: the single-drug group of PKF118-310 (with a concentration of 0.1 μM), the group of ascorbic acid (with a concentration of 0.5 mM), the group of PKF118-310 (with a concentration of 0.1 μM) in combination with ascorbic acid (with a concentration of 0.5 mM); the control group that is a cell group to which only solvent DMSO is added; and the blank group that is a group to which no cell is added and only solvent (DMSO) is added.
# as §5, §6
# (§10) The inhibitory effect of PKF118-310 on the MC38 human colon cancer cells and the HCT116 human […] cancer cells was detected in accordance with the corresponding method of Example 1.
# [4] = system: MC38 human colon cancer cells; assay: Cell viability of single-drug administration, concentration gradient (CCK-8); type: cell-based; conditions: concentrations ranging from 0 to 100 μM
# Experimental: as §8
# (§11) The diluted cells were plated into a 96-well plate with 100 μL per well, i.e., about 10,000 cells per well. […]
# (§12) (4) After 24h of dosing, 10 μL of CCK-8 solution was added. The cells were incubated in the incubator for 1-2 hours, and then measured at 490 nm using a microplate reader for the absorbance (OD value) of each well. The results were recorded. The relative cell viability was calculated as follows:
# (§13) The cell viability of the control group obtained according the equation is 100%.
# [5] = system: HCT116 human colon cancer cells; assay: as above; type: cell-based; conditions: concentrations ranging from 0 to 100 μM
# Experimental: as §8, §11, §12, §13
# [6] = system: HCT116 human colon cancer cells; assay: cells; conditions: Homo sapiens, HCT-116, read-out: cell viability
# Experimental: as §1, §2, §3, §9, §5, §6, §10
# [7] = system: 143B human osteosarcoma cells; assay: siRNA against β-catenin transfection with or without sodium ascorbate, cell viability by cell count; type: cell-based; conditions: 143B cells
# Description: SiRNA is designed against the nucleotide sequence of β-catenin, and the siRNA codes are 484, 1202, and 1387, respectively. The sequences of sense strand and anti-sense strand of 484 are shown in SEQ ID NO. 1-2, respectively, and the sequences of sense strand and anti-sense strand of 1202 are shown in SEQ ID NO. 3-4, respectively, and the sequences of sense strand and anti-sense strand of 1387 are shown in SEQ ID NO. 5-6, respectively, wherein there are 2 T-bases at the 3′ end of each strand. 143B human osteosarcoma cells were subcultured at 37° C., 5% CO2 in an incubator with a RPMI-1640 medium containing 10% fetal bovine serum. The particular steps were as follows:
# as §8
# Then, the medium was discarded and replaced with 500 μL of serum-free medium.
# (5) […] of siRNA was added into 50 μL of serum-free medium and mixed well.
# (6) 1 μL of Lipofectamin 2000 transfection reagent was added into 50 μL of serum-free medium, mixed well, and stood at room temperature for 5 min.
# (7) The siRNA diluted in Step (5) and the Lipofectamin 2000 reagent obtained in Step (6) were mixed, shaken well, and stood at room temperature for 20 min.
# (8) 100 μL of the mixture obtained in Step (7) was added into the wells of the cell culture plate, cultured at 37° C. for 4h, and then the medium was replaced with normal medium. And an ascorbic acid solution with a concentration of 0.5 mM into the ascorbic acid group and the combination group.
# (9) After 24h of dosing, the medium was discarded. […] The cells were digested for 5 min;
# [8] = alone; PKF118-310 0.7 mg/kg s.c. or ascorbate 1 g/kg i.v. every 3 days
# Experimental: The day of the first injection was taken as Day 1, and then the body weight and the tumor size of the nude mice were examined and recorded: the tumor volume (mm^3)=Length (L)×Width (W)^2/2. The tumor was subject to Luciferin fluorescence imaging. That is, a 1 mg/mL of aqueous potassium D-fluorescein solution was prepared, and each mouse was intraperitoneally injected with 100 μL. After 10 min of injection, the mice were subject to Luciferin fluorescence imaging with a small animal live imaging instrument.
# [9] = system: SKOV3 human ovarian cancer cells; assay: cells; conditions: Homo sapiens, SK-OV-3, read-out: cell viability
# Experimental: as §1, §2, §3, §9, §5, §6
# (§14) The inhibitory effect of PKF118-310 on the SKOV3 human ovarian cancer cells and the 3AO human ovarian cancer cells was detected in accordance with the corresponding method of Example 1.
# [10] = system: 3AO human ovarian cancer cells; assay: cells; conditions: Homo sapiens, 3AO, read-out: cell viability
# Experimental: as §1, §2, §3, §9, §5, §6, §14
# DB lymphoma cells = conditions: 2 mM ascorbic acid alone
# Experimental: as §1, §2, §3, §9, §5, §6
# For example, as for the DB lymphoma cells, the control group involves adding the solvent DMSO alone, the Vc group involves adding 2 mM of ascorbic acid, the low-dose PKF group involves adding 2 μM of PKF118-310, the low-dose PKF+Vc group involves adding 2 μM of PKF118-310 and 2 mM of ascorbic acid, the high-dose PKF group involves adding 5 μM of PKF118-310, and the high-dose PKF+the Vc group involves adding 5 μM of PKF118-310 and 2 mM of ascorbic acid.
# [11] = 10 μM in combination with 0.5 mM ascorbic acid
# [12] = 20 μM in combination with 0.5 mM sodium ascorbate
# [13] = Homo sapiens, 143B, read-out: cell viability
# [14] = Homo sapiens, MC-38, read-out: cell viability
# [15] = administration of the siRNA alone
# [16] = siRNA in combination with 0.5 mM sodium ascorbate
compound,measurement,setting,value
Cc1nc2c(=O)n(C)c(=O)nc-2n(C)n1 [3-Methyltoxoflavin],cell viability,[1]; 10 μM and 0.5 mM ascorbic acid,54%
same,CDI value,[1]; [11],0.86
same,cell viability,[1]; single drug 10 μM,63%
OC1CCC(Oc2cccc3cnc(Nc4ccc5nc[nH]c5c4)nc23)CC1 (centres unmarked) [NCB-0846],CDI value,"[2]; 143B cells, 20 μM in combination with 0.5 mM sodium ascorbate",0.13
same,CDI value,[1]; [12],0.16
same,specificity of inhibition of tumor cell viability as compared with the HEK293 cells,HEK293 cells,can specifically inhibit the cell viability of the 143B cells and the HOS cells
C[C@H]1[C@H]2N(C(=O)CN(C)N2C(=O)NCc2ccccc2)[C@@H](Cc2ccc(OP(=O)(O)O)cc2)C(=O)N1Cc1cccc2cccnc12 [PRI-724],CDI value,[1]; [12],0.41
same,cell viability,[1]; [12],74%
same,cell viability,[1]; single-drug 20 μM,102%
Cn1nc(-c2ccc(C(F)(F)F)cc2)nc2c(=O)n(C)c(=O)nc1-2 [Walrycin B],cell viability,[1]; 10 μM and 0.5 mM ascorbic acid,30%
same,CDI value,[1]; [11],0.73
same,cell viability,[1]; single drug 10 μM,42%
CCC(C)c1nc2c(=O)n(C)c(=O)nc-2n(C(C)C)n1 (centres unmarked) [compound C-1],CDI value,"[2]; 143B cells, 5 μM in combination with 0.5 mM ascorbic acid",0.40
same,viability at 5 µM,[2]; [13],50%
same,cell viability,"[2]; human, 24 h, 5 μM",19%
same,viability at 5 µM,[3]; [14],90%
same,CDI value,"[3]; MC38 cells, 5 μM in combination with 0.5 mM ascorbic acid",0.68
same,cell viability,"[3]; human, 24 h, 5 μM",59%
CC(C)c1nc2c(=O)n(C)c(=O)nc-2n(C)n1 [compound C-2],CDI value,"[2]; 143B cells, 1 μM in combination with 0.5 mM ascorbic acid",0.37
same,viability at 1 µM,[2]; [13],83%
same,cell viability,"[2]; human, 24 h, 1 μM",28%
same,viability at 1 µM,[3]; [14],83%
same,CDI value,"[3]; MC38 cells, 1 μM in combination with 0.5 mM ascorbic acid",0.07
same,cell viability,"[3]; human, 24 h, 1 μM",6%
O=C1[O][Pt]2([NH][C@@H]3CCCC[C@H]3[NH]2)[O]C1=O [oxaliplatin],effect on the cell viability,[4],does not have significant effect on the cell viability
same,effect on the cell viability,[5],does not have significant effect on the cell viability
O=C1O[C@H]([C@@H](O)CO)C([O-])=C1O.[Na+] [sodium ascorbate],cell viability,"[2]; 143B cells, 0.5 mM sodium ascorbate (ascorbic acid) alone",54% and 80%
same,cell viability,"[2]; 143B cells, 0.5 mM sodium ascorbate (ascorbic acid) alone, listed as ascorbic acid",96% and 92%
same,cell viability,[1]; 0.5 mM sodium ascorbate (ascorbic acid) alone,91% and 96% and 76%
same,cell viability,"[1]; 0.5 mM sodium ascorbate (ascorbic acid) alone, listed as ascorbic acid",98% and 99%
same,viability at 500 µM,[6],98%
same,viability at 500 µM,"[7]; Homo sapiens, 0.5 mM sodium ascorbate alone (siRNA experiment)",63%
same,viability at 500 µM,"[3]; Homo sapiens, MC-38, read-out: cell viability, MC38 cells, 0.5 mM sodium ascorbate (ascorbic acid) alone",83%
same,cell viability,"[3]; MC38 cells, 0.5 mM sodium ascorbate (ascorbic acid) alone",96% and 98%
same,effect on the body weight of mice,[8],no effect on the body weight of mice
same,viability at 500 µM,[9],97%
same,viability at 500 µM,[10],99%
same,cell viability,DB lymphoma cells,91%
"siRNA 484: siRNA against β-catenin, sense and anti-sense strands SEQ ID NO. 1-2, 2 T-bases at the 3′ end of each strand (sense CCUUCACUCAAGAACAAGU; antisense ACUUGUUCUUGAGUGAAGG; RNA, 3' dTdT, backbone not given here)",cell viability,[7]; [15],90%
same,CDI value,[7]; [16],0.46
same,cell viability,[7]; [16],26%
"siRNA 1202: siRNA against β-catenin, sense and anti-sense strands SEQ ID NO. 3-4, 2 T-bases at the 3′ end of each strand (sense GCUCAUCAUACUGGCUAGU; antisense ACUAGCCAGUAUGAUGAGC; RNA, 3' dTdT, backbone not given here)",cell viability,[7]; [15],91%
same,CDI value,[7]; [16],0.30
same,cell viability,[7]; [16],17%
"siRNA 1387: siRNA against β-catenin, sense and anti-sense strands SEQ ID NO. 5-6, 2 T-bases at the 3′ end of each strand (sense GUCAACGUCUUGUUCAGAA; antisense UUCUGAACAAGACGUUGAC; RNA, 3' dTdT, backbone not given here)",cell viability,[7]; [15],80%
same,CDI value,[7]; [16],0.40
same,cell viability,[7]; [16],20%
